Measured values published in the supplement of paper PMC5579334.

Experiments:
HS-PSS [1] = experiment: drug sensitivity score (DSS, CellTiter-Glo viability, 72 h) (DSS (dimensionless)); higher = more sensitive; extreme values may be limits of the assay
In short: (§1)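 After seeding 750–1000 cells per well of MPNST cell lines or primary human Schwann cells into 384-well plates preprinted with each compound at five concentrations in 10-fold steps, plates were kept 72 h at 37 °C, 5% CO2. Viability was read as CellTiter-Glo ATP luminescence relative to vehicle and positive-control wells, with duplicates averaged where present. The data were fitted with four-parameter logistic models. Drug sensitivity score and relative IC50, censored at the top concentration, derive from the fits, and percent inhibition refers to the top concentration.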

HS-Sch-2 [2] = experiment: as above
In short: as §1

YST-1 [3] = experiment: as above
In short: as §1

HS-PSS [4] = experiment: drug sensitivity score (DSS, CellTox-Green cytotoxicity, 72 h) (DSS (dimensionless)); higher = more cytotoxic; extreme values may be limits of the assay
In short: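 For 72 h at 37 °C, MPNST cell lines and primary human Schwann cells were exposed in 384-well plates to five 10-fold compound dilutions. CellTox-Green, added before seeding at a final 1:1000 dilution, gave fluorescence from DNA released by disrupted cells. Signals were scaled to vehicle and positive-control wells, cultures failing plate quality control were left out, and four-parameter logistic fits were applied. Relative IC50 and drug sensitivity score were derived from the fits, with IC50 censored at the top concentration.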

HS-PSS [5] = experiment: % inhibition of CellTiter-Glo viability at highest tested concentration (72 h), relative to DMSO and benzethonium chloride controls; higher = more inhibition
In short: as §1

HS-Sch-2 [6] = experiment: as above
In short: as §1

YST-1 [7] = experiment: as above
In short: as §1

Row | Compound | drug sensitivity score (HS-PSS [1]) | drug sensitivity score (HS-Sch-2 [2]) | drug sensitivity score (YST-1 [3]) | drug sensitivity score (HS-PSS [4]) | % inhibition (HS-PSS [5]) [%] | % inhibition (HS-Sch-2 [6]) [%] | % inhibition (YST-1 [7]) [%]
1 | Nc1nc(N)c2nc(-c3cccc(O)c3)c(-c3cccc(O)c3)nc2n1 [TG100-115] (max concentration tested 10000 nM) | 0 | 0 | 1.38 | 0 | 9.07 | 10.8 | 20.9
2 | O=C(/C=C\n1cnc(-c2cc(C(F)(F)F)cc(C(F)(F)F)c2)n1)NNc1cnccn1 [Selinexor] (max concentration tested 10000 nM) | 11.3 | 19.8 | 21.4 | 1.86 | 72.3 | 101 | 95.3
3 | CC(C)(C)C[C@@H]1N[C@@H](C(=O)N[C@H]2CC[C@H](O)CC2)[C@H](c2cccc(Cl)c2F)[C@]12C(=O)Nc1cc(Cl)ccc12 (max concentration tested 10000 nM) | 1.67 | 0.86 | 21.9 | 0 | 36.2 | 19.6 | 100
4 | NC(=S)N/N=C/c1ncccc1N [Triapine] (max concentration tested 10000 nM) | 4.81 | 5.68 | 2.82 | 0.94 | 65.6 | 63.9 | 63.8
5 | Cc1nc(Nc2n[nH]c3c2CN(C(=O)N[C@H](CN(C)C)c2ccccc2)C3(C)C)c2sccc2n1 (max concentration tested 10000 nM) | 27.9 | 15.4 | 24.2 | 10.6 | 86.4 | 101 | 101
6 | CNC(=O)c1ccc(C)c(-n2c(C)cc(OCc3ccc(F)cc3F)c(Br)c2=O)c1 (max concentration tested 1000 nM) | 0 | 0 | 5.16 | 0 | 8.35 | 4 | 38.4
7 | CCc1cc(Nc2nccc(-c3c(-c4ccc(OC)c(C(=O)Nc5c(F)cccc5F)c4)nc4ccccn34)n2)c(OC)cc1N1CCC(N2CCN(S(C)(=O)=O)CC2)CC1 (max concentration tested 10000 nM) | 0 | 0.89 | 16.1 | 0 | 4.32 | 7.21 | 52.3
8 | CN1CCN(c2cc(C(=O)Nc3ccc4c(c3)-c3c(c(C(N)=O)nn3-c3ccc(F)cc3)CC4)c(Cl)cn2)CC1 [PHA 408] (max concentration tested 10000 nM) | 7.02 | 5.4 | 5.73 | 4.95 | 101 | 99.8 | 99.9
9 | COc1ccc(COc2cc3oc(=O)c4cc(C(C)O)ccc4c3cc2OC)cc1 (centres undefined) [Palomid-529] (max concentration tested 10000 nM) | 0 | 0 | 0 | 0 | 2.33 | -4.31 | 10.2
10 | CNC(=O)c1ccccc1Nc1cc(Nc2ccc(N3CCOCC3)cc2OC)ncc1C(F)(F)F [VS-4718] (max concentration tested 10000 nM) | 3.23 | 3.18 | 4.99 | 0.03 | 68.6 | 50.4 | 45.2
11 | O=C(O)CSc1cc(NS(=O)(=O)c2ccc(Br)cc2)c2ccccc2c1O [UMI-77] (max concentration tested 100000 nM) | 6.44 | 14.4 | 18.2 | 4.6 | 101 | 101 | 102
12 | O=C(Nc1ccc(-c2ccnc(Nc3ccc(N4CCOCC4)cc3)n2)cc1)[C@H]1CCCN1 [XL019] (max concentration tested 10000 nM) | 1.67 | 1.09 | 1.13 | 0 | 32.7 | 22.7 | 24.9
13 | Cn1ncnc1[C@H]1c2n[nH]c(=O)c3cc(F)cc(c23)N[C@@H]1c1ccc(F)cc1 [Talazoparib] (max concentration tested 1000 nM) | 3.37 | 1.84 | 15.5 | 0 | 21.9 | 25.4 | 61.3
14 | C=CC(=O)Nc1cccc(Nc2nc(Nc3ccc(N4CCN(C(C)=O)CC4)cc3OC)ncc2C(F)(F)F)c1 [Rociletinib] (max concentration tested 10000 nM) | 4.91 | 4.99 | 8.73 | 3.25 | 86.4 | 80.9 | 95.2
15 | Cc1[nH]c(/C=C2\C(=O)Nc3ccccc32)c(C)c1CCC(=O)O [Orantinib] (max concentration tested 10000 nM) | 0.29 | 0 | 0.72 | 20.3 | 15 | 0.75 | 20
16 | O=C1c2ccccc2-c2n[nH]c3cccc1c23 (max concentration tested 100000 nM) | 4.26 | 2.29 | 2.42 | 0.2 | 43.2 | 27.4 | 34.2
17 | COc1cccc2c1C(=O)c1c(O)c3c(c(O)c1C2=O)C[C@@](O)(/C(CO)=N/NC(=O)CCCCCN1C(=O)C=CC1=O)C[C@@H]3O[C@H]1C[C@H](N)[C@H](O)[C@H](C)O1 [Aldoxorubicin] (max concentration tested 1000 nM) | 9.01 | 11 | 14.4 | 2.15 | 97.2 | 101 | 101
